Measurements published in patent publication US11332459B2 (TEIJIN PHARMA LIMITED, priority 2017, dated 2022).
Where a name gives a salt, the structure may show the parent alone.

Molecular target: T1, human TRPC6 (Homo sapiens, UniProt Q9Y210)
T1 construct: expressed in transfected cells
T1 sequence (Q9Y210 1-931): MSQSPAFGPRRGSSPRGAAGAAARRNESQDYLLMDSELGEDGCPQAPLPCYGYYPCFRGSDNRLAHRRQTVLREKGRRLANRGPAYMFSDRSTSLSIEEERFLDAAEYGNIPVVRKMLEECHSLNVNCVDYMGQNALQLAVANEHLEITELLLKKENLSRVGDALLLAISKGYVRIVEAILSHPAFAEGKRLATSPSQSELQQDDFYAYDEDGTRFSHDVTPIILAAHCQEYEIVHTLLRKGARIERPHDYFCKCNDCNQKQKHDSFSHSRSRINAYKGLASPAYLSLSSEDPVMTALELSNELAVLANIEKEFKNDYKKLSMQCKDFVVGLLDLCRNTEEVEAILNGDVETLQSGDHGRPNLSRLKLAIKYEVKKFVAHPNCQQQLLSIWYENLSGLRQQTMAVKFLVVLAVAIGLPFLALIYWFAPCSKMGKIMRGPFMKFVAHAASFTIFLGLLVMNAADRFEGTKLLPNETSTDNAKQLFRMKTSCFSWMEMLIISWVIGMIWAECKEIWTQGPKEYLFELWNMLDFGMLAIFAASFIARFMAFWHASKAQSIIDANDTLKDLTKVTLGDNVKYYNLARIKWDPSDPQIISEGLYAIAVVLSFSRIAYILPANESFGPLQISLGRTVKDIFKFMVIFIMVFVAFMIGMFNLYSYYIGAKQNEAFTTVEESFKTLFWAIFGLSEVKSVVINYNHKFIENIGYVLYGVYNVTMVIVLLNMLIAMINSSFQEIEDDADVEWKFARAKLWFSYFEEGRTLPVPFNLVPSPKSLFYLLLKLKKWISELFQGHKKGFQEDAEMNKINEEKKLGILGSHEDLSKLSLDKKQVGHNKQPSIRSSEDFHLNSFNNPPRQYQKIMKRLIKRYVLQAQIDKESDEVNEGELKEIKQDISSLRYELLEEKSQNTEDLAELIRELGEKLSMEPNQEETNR
Test: TRPC6 calcium flux assay (FLIPR, OAG-stimulated calcium influx)
Assay type: cell-based
Conditions: HEK293 cells stably transfected with human TRPC6, read-out: hTRPC6 Potency
Method in brief: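 HEK293 cells stably expressing human TRPC6, loaded with calcium dye 90–120 min at RT, then given compound for 25 min before OAG (50 uM final, 0.5% DMSO) in HEPES buffer pH 7.2 with 2 mM CaCl2. Background-subtracted FLIPR peak over 180 s normalized to OAG vs buffer; IC50 from dose plot.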

Structure (SMILES) | IC50
CC1CCN(C(=O)Cn2c(N3CC[C@@H](F)[C@H](N)C3)nc3cc(F)c(F)cc32)CC1 [Example 516, 2-(2-((3R,4R)-3-amino-4-fluoropiperidin-1-yl)-5,6-difluoro-1H-benzo[d]imidazol-1-yl)-1-(4-methylpiperidin-1-yl)ethan-1-one] | 197 nM
N[C@@H]1CN(c2nc3ccccc3n2Cc2ccc(Cl)cn2)CCC1(F)F [Example 85, (R)-1-(1-((5-chloropyridin-2-yl)methyl)-1H-benzo[d]imidazol-2-yl)-4,4-difluoropiperidin-3-amine hydrochloride] | 7.55 nM
N#Cc1cc(F)cc2c1nc(N1CCC(F)(F)[C@H](N)C1)n2Cc1ncc(Cl)cn1 [Example 151, (R)-2-(3-amino-4,4-difluoropiperidin-1-yl)-1-((5-chloropyrimidin-2-yl)methyl)-6-fluoro-1H-benzo[d]imidazole-4-carbonitrile] | 6.06 nM
N#Cc1ccc(Cn2c(N3CC[C@@H](F)[C@H](N)C3)nc3c(F)cc(F)cc32)nc1 [Example 63, 6-((2-((3R,4R)-3-amino-4-fluoropiperidin-1-yl)-4,6-difluoro-1H-benzo[d]imidazol-1-yl)methyl)nicotinonitrile] | 0.389 nM
N#Cc1ccc(Cn2c(N3CC[C@@H](F)[C@H](N)C3)nc3ccccc32)cc1 [Example 173, 4-((2-((3R,4R)-3-amino-4-fluoropiperidin-1-yl)-1H-benzo[d]imidazol-1-yl)methyl)benzonitrile] | 1.38 nM
N[C@@H]1CN(c2nc3cc(F)c(F)cc3n2CC(=O)N2Cc3cccnc3C2)CC[C@H]1F [Example 632, 2-(2-((3R,4R)-3-amino-4-fluoropiperidin-1-yl)-5,6-difluoro-1H-benzo[d]imidazol-1-yl)-1-(5H-pyrrolo[3,4-b]pyridin-6(7H)-yl)ethanone] | 230 nM
C[C@@H](c1ccc(C#N)cn1)n1c(N2CC[C@@H](F)[C@H](N)C2)nc2cc(C#N)ccc21 [Example 226, 2-((3R,4R)-3-amino-4-fluoropiperidin-1-yl)-1-((S)-1-(5-cyanopyridin-2-yl)ethyl)-1H-benzo[d]imidazole-5-carbonitrile hydrochloride] | 13.7 nM
N#Cc1ccc(Cn2c(N3CCC[C@H](N)C3)nc3ccccc32)c(Cl)c1 [Example 321, (S)-4-((2-(3-aminopiperidin-1-yl)-1H-benzo[d]imidazol-1-yl)methyl)-3-chlorobenzonitrile hydrochloride] | 4.07 nM
N#Cc1ccc(Cn2c(N3CCC[C@]4(CCN4)C3)nc3ccccc32)nc1 [Example 28, (S)-6-((2-(1,6-diazaspiro[3.5]nonan-6-yl)-1H-benzo[d]imidazol-1-yl)methyl)nicotinonitrile] | > 3750 nM
N#Cc1ccc(Cn2c(N3CC[C@H](F)[C@H](N)C3)nc3cc(F)ccc32)nc1 [Example 48, 6-((2-((3R,4S)-3-amino-4-fluoropiperidin-1-yl)-5-fluoro-1H-benzo[d]imidazol-1-yl)methyl)nicotinonitrile hydrochloride] | 2.21 nM
Cc1nnc(Cn2c(N3CCC(F)(F)[C@H](N)C3)nc3ccc(F)cc32)s1 [Example 588, (R)-4,4-difluoro-1-(6-fluoro-1-((5-methyl-1,3,4-thiadiazol-2-yl)methyl)-1H-benzo[d]imidazol-2-yl)piperidin-3-amine] | 811 nM
N#Cc1ccc(Cn2c(N3CCC(F)(F)[C@H](N)C3)nc3cc(F)c(F)cc32)nc1 [Example 84, (R)-6-((2-(3-amino-4,4-difluoropiperidin-1-yl)-5,6-difluoro-1H-benzo[d]imidazol-1-yl)methyl)nicotinonitrile hydrochloride] | 1.27 nM
CN[C@@H]1CN(c2nc3ccc(F)cc3n2CC(=O)N(C)CC(F)(F)F)CC[C@H]1F [Example 469, 2-(6-fluoro-2-((3R,4R)-4-fluoro-3-(methylamino)piperidin-1-yl)-1H-benzo[d]imidazol-1-yl)-N-methyl-N-(2,2,2-trifluoroethyl)acetamide] | 190 nM
CNC(=O)c1ccc(Cn2c(N3CCC[C@@H](N)C3)nc3ccccc32)cc1 [Example 382, (R)-4-((2-(3-aminopiperidin-1-yl)-1H-benzo[d]imidazol-1-yl)methyl)-N-methylbenzamide] | > 50000 nM
N[C@@H]1CN(c2nc3cc(F)c(F)cc3n2CC(=O)N(CCO)C2CC2)CC[C@H]1F [Example 617, 2-(2-((3R,4R)-3-amino-4-fluoropiperidin-1-yl)-5,6-difluoro-1H-benzo[d]imidazol-1-yl)-N-cyclopropyl-N-(2-hydroxyethyl)acetamide] | 33.2 nM
C[C@H](c1cccc2cccnc12)n1c(N2CC[C@@H](F)[C@H](N)C2)nc2cc(F)c(F)cc21 [Example 261, (3R,4R)-1-(5,6-difluoro-1-((1R)-1-(8-quinolinyl)ethyl)-1H-benzimidazol-2-yl)-4-fluoro-3-piperidinamine] | > 3750 nM
CC1CN(c2nc3ccc(F)cc3n2CC(=O)N(C)CC(F)(F)F)CC1N (centres unmarked) [Example 480, 2-(2-(3-amino-4-methylpyrrolidin-1-yl)-6-fluoro-1H-benzo[d]imidazol-1-yl)-N-methyl-N-(2,2,2-trifluoroethyl)acetamide] | 1200 nM
N#Cc1ccc(Cn2c(N3CC[C@@H](F)[C@H](N)C3)nc3c(Cl)cccc32)nc1 [Example 4] | 1.67 nM
N[C@@H]1CN(c2nc3cc(F)c(F)cc3n2CC(=O)N2CCn3ncnc3C2)CC[C@H]1F [Example 646, 2-(2-((3R,4R)-3-amino-4-fluoropiperidin-1-yl)-5,6-difluoro-1H-benzo[d]imidazol-1-yl)-1-(5,6-dihydro-[1,2,4]triazolo[1,5-a]pyrazin-7(8H)-yl)ethanone] | 2310 nM
N#CC1CN(C(=O)Cn2c(N3CC[C@@H](F)[C@H](N)C3)nc3cc(F)c(F)cc32)CCO1 (mixture of isomers) [Example 627, 4-(2-(2-((3R,4R)-3-amino-4-fluoropiperidin-1-yl)-5,6-difluoro-1H-benzo[d]imidazol-1-yl)acetyl)morpholine-2-carbonitrile] | 122 nM
N[C@@H]1CN(c2nc3c(F)cc(F)cc3n2Cc2ncc(F)cn2)CC[C@H]1F [Example 35, (3R,4R)-1-(4,6-difluoro-1-((5-fluoropyrimidin-2-yl)methyl)-1H-benzo[d]imidazol-2-yl)-4-fluoropiperidin-3-amine] | 0.491 nM
N#Cc1ccc(Cn2c(N3C[C@H]4C[C@@]4(CN)C3)nc3ccccc32)cc1 [Example 184, 4-((2-((1R,5S)-1-(aminomethyl)-3-azabicyclo[3.1.0]hexan-3-yl)-1H-benzo[d]imidazol-1-yl)methyl)benzonitrile] | 143 nM
N[C@@H]1CN(c2nc3ccccc3n2Cc2ccc(F)cn2)CC[C@H]1F [Example 189, (3R,4R)-4-fluoro-1-(1-((5-fluoropyridin-2-yl)methyl)-1H-benzo[d]imidazol-2-yl)piperidin-3-amine] | 3.59 nM
N#Cc1ccc(Cn2c(N3CCC[C@](N)(CO)C3)nc3ccccc32)nc1 [Example 105, (R)-6-((2-(3-amino-3-(hydroxymethyl)piperidin-1-yl)-1H-benzo[d]imidazol-1-yl)methyl)nicotinonitrile] | 2480 nM
CN(C)C(=O)Cn1c(N2CC[C@@H](F)[C@H](N)C2)nc2cc(Cl)ccc21 [Example 506, 2-(2-((3R,4R)-3-amino-4-fluoropiperidin-1-yl)-5-chloro-1H-benzo[d]imidazol-1-yl)-N,N-dimethylacetamide] | 76.6 nM
N[C@@H]1CN(c2nc3cc(F)c(F)cc3n2CC(=O)N2CCCC3COCCC32)CC[C@H]1F (stereo partly drawn) [Example 639, 2-(2-((3R,4R)-3-amino-4-fluoropiperidin-1-yl)-5,6-difluoro-1H-benzo[d]imidazol-1-yl)-1-(octahydro-1H-pyrano[4,3-b]pyridin-1-yl)ethanone] | 657 nM
N#Cc1ccc(Cn2c(N3CCC(F)(F)[C@H](N)C3)nc3cc(C#N)ccc32)cc1 [Example 161, 2-((3R)-3-amino-4,4-difluoro-1-piperidinyl)-1-(4-cyanobenzyl)-1H-benzimidazole-5-carbonitrile] | 133 nM
NC(=O)c1ccc(Cn2c(N3CC[C@@H](F)[C@H](N)C3)nc3ccccc32)nc1 [Example 436, 6-((2-((3R,4R)-3-amino-4-fluoropiperidin-1-yl)-1H-benzo[d]imidazol-1-yl)methyl)nicotinamide] | 52.4 nM
C[C@@H](c1cccc(Cl)c1)n1c(N2CC[C@@H](F)[C@H](N)C2)nc2cc(F)c(F)cc21 [Example 327, (3R,4R)-1-(1-((1S)-1-(3-chlorophenyl)ethyl)-5,6-difluoro-1H-benzimidazol-2-yl)-4-fluoro-3-piperidinamine] | 1370 nM
